Measured values reported in US8772480B2, “Inhibitors of PI3 kinase and/or mTOR” (priority 2009, dated 2014).

Columns and labels:
Format in all cases: biochemical
[1] = target: ProfilerPro Kinase Selectivity Assay Kit kinases (Homo sapiens, UniProt P36888); settings: FLT3; 1 μM compound concentration
Experimental: (§1) Compounds were profiled using a LabChip® EZ Reader II platform and a ProfilerPro Kinase Selectivity Assay Kit (Caliper Lifesciences Inc., Hopkinton, Mass.). Compounds were tested at a concentration of 1 M in duplicate, with mean data reported as percent of control (POC).

[2] = target: ProfilerPro Kinase Selectivity Assay Kit kinases (Homo sapiens, UniProt P48730); settings: CK1 delta; 1 μM compound concentration
Experimental: as §1

[3] = target: ProfilerPro Kinase Selectivity Assay Kit kinases (Homo sapiens, UniProt Q16566); settings: CAMK4; 1 μM compound concentration
Experimental: as §1

[4] = target: ProfilerPro Kinase Selectivity Assay Kit kinases (Homo sapiens, UniProt P24941); settings: CDK2; 1 μM compound concentration
Experimental: as §1

[5] = target: ProfilerPro Kinase Selectivity Assay Kit kinases (Homo sapiens, UniProt Q13188); settings: MST2; 1 μM compound concentration
Experimental: as §1

[6] = target: ProfilerPro Kinase Selectivity Assay Kit kinases (Homo sapiens, UniProt P27361); settings: ERK1; 1 μM compound concentration
Experimental: as §1

[7] = target: ProfilerPro Kinase Selectivity Assay Kit kinases (Homo sapiens, UniProt P07948); settings: LYN; 1 μM compound concentration
Experimental: as §1

[8] = target: ProfilerPro Kinase Selectivity Assay Kit kinases (Homo sapiens, UniProt P28482); settings: ERK2; 1 μM compound concentration
Experimental: as §1

[9] = target: ProfilerPro Kinase Selectivity Assay Kit kinases (Homo sapiens, UniProt Q16539); settings: p38 alpha; 1 μM compound concentration
Experimental: as §1

[10] = target: ProfilerPro Kinase Selectivity Assay Kit kinases (Homo sapiens, UniProt O75582); settings: MSK1; 1 μM compound concentration
Experimental: as §1

[11] = target: ProfilerPro Kinase Selectivity Assay Kit kinases (Homo sapiens, UniProt Q15418); settings: RSK1; 1 μM compound concentration
Experimental: as §1

[12] = target: ProfilerPro Kinase Selectivity Assay Kit kinases (Homo sapiens, UniProt Q13627); settings: DYRK1a; 1 μM compound concentration
Experimental: as §1

[13] = target: ProfilerPro Kinase Selectivity Assay Kit kinases (Homo sapiens, UniProt P23443); settings: p70S6K; 1 μM compound concentration
Experimental: as §1

[14] = target: ProfilerPro Kinase Selectivity Assay Kit kinases (Homo sapiens, UniProt O95819); settings: HGK; 1 μM compound concentration
Experimental: as §1

[15] = target: ProfilerPro Kinase Selectivity Assay Kit kinases (Homo sapiens, UniProt O14757); settings: CHK1; 1 μM compound concentration
Experimental: as §1

[16] = target: ProfilerPro Kinase Selectivity Assay Kit kinases (Homo sapiens, UniProt P00519); settings: ABL; 1 μM compound concentration
Experimental: as §1

[17] = target: ProfilerPro Kinase Selectivity Assay Kit kinases (Homo sapiens, UniProt P17612); settings: PKA alpha; 1 μM compound concentration
Experimental: as §1

[18] = target: ProfilerPro Kinase Selectivity Assay Kit kinases (Homo sapiens, UniProt Q8IW41); settings: PRAK; 1 μM compound concentration
Experimental: as §1

[19] = target: ProfilerPro Kinase Selectivity Assay Kit kinases (Homo sapiens, UniProt P08069); settings: IGF1R; 1 μM compound concentration
Experimental: as §1

[20] = target: ProfilerPro Kinase Selectivity Assay Kit kinases (Homo sapiens, UniProt P12931); settings: SRC; 1 μM compound concentration
Experimental: as §1

[21] = target: ProfilerPro Kinase Selectivity Assay Kit kinases (Homo sapiens, UniProt Q13976); settings: PKGa2; 1 μM compound concentration
Experimental: as §1

[22] = target: ProfilerPro Kinase Selectivity Assay Kit kinases (Homo sapiens, UniProt O14965); settings: AURORA A; 1 μM compound concentration
Experimental: as §1

[23] = target: ProfilerPro Kinase Selectivity Assay Kit kinases (Homo sapiens, UniProt Q9P0L2); settings: MARK1; 1 μM compound concentration
Experimental: as §1

[24] = target: ProfilerPro Kinase Selectivity Assay Kit kinases (Homo sapiens, UniProt P31749); settings: AKT1; 1 μM compound concentration
Experimental: as §1

[25] = target: ProfilerPro Kinase Selectivity Assay Kit kinases (Homo sapiens, UniProt P08581); settings: cMET; 1 μM compound concentration
Experimental: as §1

[26] = target: ProfilerPro Kinase Selectivity Assay Kit kinases (Homo sapiens, UniProt Q06187); settings: BTK; 1 μM compound concentration
Experimental: as §1

[27] = target: ProfilerPro Kinase Selectivity Assay Kit kinases (Homo sapiens, UniProt P04049); settings: cRAF; 1 μM compound concentration
Experimental: as §1

[28] = target: ProfilerPro Kinase Selectivity Assay Kit kinases (Homo sapiens, UniProt P11362); settings: FGFR1; 1 μM compound concentration
Experimental: as §1

[29] = target: ProfilerPro Kinase Selectivity Assay Kit kinases (Homo sapiens, UniProt P49841); settings: GSK3 beta; 1 μM compound concentration
Experimental: as §1

[30] = target: ProfilerPro Kinase Selectivity Assay Kit kinases (Homo sapiens, UniProt P06213); settings: INSR; 1 μM compound concentration
Experimental: as §1

[31] = target: ProfilerPro Kinase Selectivity Assay Kit kinases (Homo sapiens, UniProt P06239); settings: LCK; 1 μM compound concentration
ProfilerPro Kinase Selectivity Assay Kit kinases (Homo sapiens, UniProt P06239), sequence (P06239 2-509 limits assumed): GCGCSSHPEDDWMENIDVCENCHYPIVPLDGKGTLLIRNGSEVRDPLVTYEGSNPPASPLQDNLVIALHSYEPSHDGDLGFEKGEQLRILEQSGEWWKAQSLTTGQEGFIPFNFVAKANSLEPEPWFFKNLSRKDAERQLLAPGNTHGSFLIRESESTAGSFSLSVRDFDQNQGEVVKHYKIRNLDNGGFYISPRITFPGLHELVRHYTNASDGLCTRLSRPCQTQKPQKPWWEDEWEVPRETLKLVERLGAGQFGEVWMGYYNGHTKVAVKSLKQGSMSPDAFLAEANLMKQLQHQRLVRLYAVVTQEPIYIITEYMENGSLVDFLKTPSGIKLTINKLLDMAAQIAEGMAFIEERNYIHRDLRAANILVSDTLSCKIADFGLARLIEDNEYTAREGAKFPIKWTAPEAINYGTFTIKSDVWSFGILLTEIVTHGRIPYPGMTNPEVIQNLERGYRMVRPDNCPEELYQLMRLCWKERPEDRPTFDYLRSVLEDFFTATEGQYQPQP
Experimental: as §1

ProfilerPro Kinase Selectivity Assay Kit kinases (Homo sapiens, UniProt P11362), sequence (P11362 22-822 limits assumed): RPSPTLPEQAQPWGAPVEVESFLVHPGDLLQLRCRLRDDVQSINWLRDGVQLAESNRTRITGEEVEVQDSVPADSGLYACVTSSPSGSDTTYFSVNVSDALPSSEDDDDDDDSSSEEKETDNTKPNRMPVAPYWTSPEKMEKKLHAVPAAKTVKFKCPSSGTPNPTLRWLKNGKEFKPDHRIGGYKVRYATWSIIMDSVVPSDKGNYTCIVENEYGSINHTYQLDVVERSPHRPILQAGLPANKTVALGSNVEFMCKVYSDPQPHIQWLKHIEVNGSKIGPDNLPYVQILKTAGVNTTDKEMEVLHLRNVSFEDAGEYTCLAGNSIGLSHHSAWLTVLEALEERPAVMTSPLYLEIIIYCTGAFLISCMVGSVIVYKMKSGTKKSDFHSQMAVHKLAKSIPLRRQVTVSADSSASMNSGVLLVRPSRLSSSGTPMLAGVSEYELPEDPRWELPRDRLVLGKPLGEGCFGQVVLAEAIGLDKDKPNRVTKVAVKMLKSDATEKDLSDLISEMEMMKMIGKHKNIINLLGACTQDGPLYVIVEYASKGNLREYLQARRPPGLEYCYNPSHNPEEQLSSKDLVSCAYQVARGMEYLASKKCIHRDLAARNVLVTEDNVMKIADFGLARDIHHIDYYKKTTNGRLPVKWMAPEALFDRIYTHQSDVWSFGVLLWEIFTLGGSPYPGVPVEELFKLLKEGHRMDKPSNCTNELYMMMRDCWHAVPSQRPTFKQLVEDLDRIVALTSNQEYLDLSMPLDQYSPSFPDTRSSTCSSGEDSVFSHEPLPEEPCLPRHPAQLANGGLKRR
ProfilerPro Kinase Selectivity Assay Kit kinases (Homo sapiens, UniProt Q16539), sequence (Q16539 2-360 limits assumed): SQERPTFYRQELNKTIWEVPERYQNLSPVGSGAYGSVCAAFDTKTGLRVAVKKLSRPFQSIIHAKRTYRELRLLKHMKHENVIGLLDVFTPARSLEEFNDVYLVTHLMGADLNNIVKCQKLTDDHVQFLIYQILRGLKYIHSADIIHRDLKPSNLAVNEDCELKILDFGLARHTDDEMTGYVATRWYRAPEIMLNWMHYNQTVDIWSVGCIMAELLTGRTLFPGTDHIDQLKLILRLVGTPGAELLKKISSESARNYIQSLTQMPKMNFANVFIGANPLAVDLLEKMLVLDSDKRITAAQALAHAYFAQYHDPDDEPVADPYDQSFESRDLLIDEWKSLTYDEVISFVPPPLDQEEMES
ProfilerPro Kinase Selectivity Assay Kit kinases (Homo sapiens, UniProt O95819), sequence (O95819 2-1239 limits assumed): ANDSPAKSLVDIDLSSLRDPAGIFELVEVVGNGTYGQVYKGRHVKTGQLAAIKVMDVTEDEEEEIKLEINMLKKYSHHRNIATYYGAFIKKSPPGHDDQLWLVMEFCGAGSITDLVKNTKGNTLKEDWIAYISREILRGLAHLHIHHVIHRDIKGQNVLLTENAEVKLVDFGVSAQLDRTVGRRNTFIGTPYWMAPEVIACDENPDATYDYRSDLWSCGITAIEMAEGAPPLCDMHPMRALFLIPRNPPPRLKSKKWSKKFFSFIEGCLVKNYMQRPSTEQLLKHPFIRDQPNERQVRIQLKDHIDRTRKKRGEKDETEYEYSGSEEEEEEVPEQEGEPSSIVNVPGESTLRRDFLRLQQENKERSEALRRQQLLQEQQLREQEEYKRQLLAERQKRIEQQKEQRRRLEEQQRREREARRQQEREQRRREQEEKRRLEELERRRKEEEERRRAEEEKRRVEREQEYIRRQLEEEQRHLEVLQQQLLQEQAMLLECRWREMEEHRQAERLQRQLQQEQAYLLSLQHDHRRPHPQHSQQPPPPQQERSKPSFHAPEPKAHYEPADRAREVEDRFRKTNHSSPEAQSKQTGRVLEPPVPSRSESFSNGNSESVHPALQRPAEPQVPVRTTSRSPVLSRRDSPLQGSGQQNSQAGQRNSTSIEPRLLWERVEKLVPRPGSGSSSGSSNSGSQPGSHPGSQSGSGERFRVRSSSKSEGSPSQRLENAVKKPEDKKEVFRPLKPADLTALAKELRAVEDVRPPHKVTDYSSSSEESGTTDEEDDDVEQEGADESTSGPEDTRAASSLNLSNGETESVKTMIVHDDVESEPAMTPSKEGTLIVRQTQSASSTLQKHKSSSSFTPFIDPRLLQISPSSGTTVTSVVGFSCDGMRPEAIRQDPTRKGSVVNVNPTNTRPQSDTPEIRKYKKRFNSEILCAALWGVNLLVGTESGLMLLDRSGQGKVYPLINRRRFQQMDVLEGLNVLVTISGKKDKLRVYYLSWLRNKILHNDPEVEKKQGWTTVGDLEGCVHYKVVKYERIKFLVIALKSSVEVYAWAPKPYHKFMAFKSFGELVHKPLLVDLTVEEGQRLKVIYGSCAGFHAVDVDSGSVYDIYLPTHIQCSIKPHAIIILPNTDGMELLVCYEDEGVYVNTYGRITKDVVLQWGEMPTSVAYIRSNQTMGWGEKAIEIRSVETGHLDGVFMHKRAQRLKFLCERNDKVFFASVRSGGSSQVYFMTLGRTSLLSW
ProfilerPro Kinase Selectivity Assay Kit kinases (Homo sapiens, UniProt P07948), sequence (P07948 2-512 limits assumed): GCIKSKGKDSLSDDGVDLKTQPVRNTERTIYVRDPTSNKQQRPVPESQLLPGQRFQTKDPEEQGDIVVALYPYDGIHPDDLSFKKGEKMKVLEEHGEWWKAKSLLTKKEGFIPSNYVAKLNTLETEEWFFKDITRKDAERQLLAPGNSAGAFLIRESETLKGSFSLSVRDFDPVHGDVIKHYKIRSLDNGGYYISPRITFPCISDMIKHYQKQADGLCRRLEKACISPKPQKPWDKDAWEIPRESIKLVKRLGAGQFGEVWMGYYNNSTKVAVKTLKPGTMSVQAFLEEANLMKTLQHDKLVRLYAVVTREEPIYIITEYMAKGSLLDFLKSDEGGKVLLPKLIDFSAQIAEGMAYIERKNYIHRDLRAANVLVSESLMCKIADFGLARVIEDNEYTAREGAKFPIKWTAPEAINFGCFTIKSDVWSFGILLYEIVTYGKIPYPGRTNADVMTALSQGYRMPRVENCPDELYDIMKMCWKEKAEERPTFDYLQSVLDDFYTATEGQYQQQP
ProfilerPro Kinase Selectivity Assay Kit kinases (Homo sapiens, UniProt P27361), sequence (P27361 2-379 limits assumed): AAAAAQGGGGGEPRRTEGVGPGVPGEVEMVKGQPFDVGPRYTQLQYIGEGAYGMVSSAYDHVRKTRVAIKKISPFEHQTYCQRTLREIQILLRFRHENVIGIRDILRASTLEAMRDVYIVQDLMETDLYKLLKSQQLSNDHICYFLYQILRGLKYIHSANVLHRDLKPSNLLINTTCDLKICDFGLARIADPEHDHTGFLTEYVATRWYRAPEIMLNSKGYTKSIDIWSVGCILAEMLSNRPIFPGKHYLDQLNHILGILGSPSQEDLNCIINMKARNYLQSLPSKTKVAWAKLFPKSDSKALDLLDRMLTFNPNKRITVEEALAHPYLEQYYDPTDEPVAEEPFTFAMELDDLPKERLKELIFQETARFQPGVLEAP
ProfilerPro Kinase Selectivity Assay Kit kinases (Homo sapiens, UniProt Q06187), sequence (Q06187 2-659 limits assumed): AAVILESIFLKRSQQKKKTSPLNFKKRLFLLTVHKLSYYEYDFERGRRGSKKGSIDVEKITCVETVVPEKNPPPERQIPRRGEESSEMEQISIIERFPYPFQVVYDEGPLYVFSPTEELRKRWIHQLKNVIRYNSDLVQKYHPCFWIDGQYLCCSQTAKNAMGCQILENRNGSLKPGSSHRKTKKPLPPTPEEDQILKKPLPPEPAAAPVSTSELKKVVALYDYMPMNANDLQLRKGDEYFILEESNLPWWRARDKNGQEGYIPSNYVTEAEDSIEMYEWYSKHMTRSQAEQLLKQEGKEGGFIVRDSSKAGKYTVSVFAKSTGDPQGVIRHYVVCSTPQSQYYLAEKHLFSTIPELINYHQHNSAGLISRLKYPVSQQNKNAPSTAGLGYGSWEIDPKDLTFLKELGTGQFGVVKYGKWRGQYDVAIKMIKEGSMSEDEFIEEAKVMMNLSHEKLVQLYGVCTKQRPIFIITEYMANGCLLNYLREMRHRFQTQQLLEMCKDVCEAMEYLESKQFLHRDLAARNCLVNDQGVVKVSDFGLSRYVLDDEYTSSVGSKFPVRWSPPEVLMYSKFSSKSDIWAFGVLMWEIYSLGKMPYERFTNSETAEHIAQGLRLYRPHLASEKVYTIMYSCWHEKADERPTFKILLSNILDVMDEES
ProfilerPro Kinase Selectivity Assay Kit kinases (Homo sapiens, UniProt P12931), sequence (P12931 2-536 limits assumed): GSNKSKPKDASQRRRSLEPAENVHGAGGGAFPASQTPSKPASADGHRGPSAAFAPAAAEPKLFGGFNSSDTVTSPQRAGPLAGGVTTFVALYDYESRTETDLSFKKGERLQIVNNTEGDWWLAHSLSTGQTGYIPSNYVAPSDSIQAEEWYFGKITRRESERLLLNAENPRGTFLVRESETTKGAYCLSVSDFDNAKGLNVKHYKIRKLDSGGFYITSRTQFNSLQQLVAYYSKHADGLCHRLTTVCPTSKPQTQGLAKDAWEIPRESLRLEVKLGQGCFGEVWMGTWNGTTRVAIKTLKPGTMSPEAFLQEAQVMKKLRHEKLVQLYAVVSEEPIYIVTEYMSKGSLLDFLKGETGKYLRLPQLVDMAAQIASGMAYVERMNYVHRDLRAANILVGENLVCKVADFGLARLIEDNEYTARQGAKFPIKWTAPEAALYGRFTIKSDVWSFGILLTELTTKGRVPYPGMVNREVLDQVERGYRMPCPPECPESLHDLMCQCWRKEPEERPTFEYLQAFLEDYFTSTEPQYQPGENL

Structure (SMILES)	POC (Percent of control) FLT3 [1] [POC]	POC (Percent of control) CK1 delta [2] [POC]	POC (Percent of control) CAMK4 [3] [POC]	POC (Percent of control) CDK2 [4] [POC]	POC (Percent of control) MST2 [5] [POC]	POC (Percent of control) ERK1 [6] [POC]	POC (Percent of control) LYN [7] [POC]	POC (Percent of control) ERK2 [8] [POC]	POC (Percent of control) p38 alpha [9] [POC]	POC (Percent of control) MSK1 [10] [POC]	POC (Percent of control) RSK1 [11] [POC]	POC (Percent of control) DYRK1a [12] [POC]	POC (Percent of control) p70S6K [13] [POC]	POC (Percent of control) HGK [14] [POC]	POC (Percent of control) CHK1 [15] [POC]	POC (Percent of control) ABL [16] [POC]	POC (Percent of control) PKA alpha [17] [POC]	POC (Percent of control) PRAK [18] [POC]	POC (Percent of control) IGF1R [19] [POC]	POC (Percent of control) SRC [20] [POC]	also measured
Cc1nc(-c2cccnc2Nc2cccc3[nH]ncc23)c2nc[nH]c2n1 [Example 57, N-(3-(2-methyl-9H-purin-6-yl)pyridin-2-yl)-1H-indazol-4-amine]	92	55	93	95	95	100	95	97	100	101	97	91	94	93	106	94	100	100	77	93	POC (Percent of control) PKGa2 [21]: 98 POC; POC (Percent of control) AURORA A [22]: 99 POC; POC (Percent of control) MARK1 [23]: 99 POC; POC (Percent of control) AKT1 [24]: 102 POC; POC (Percent of control) cMET [25]: 100 POC; POC (Percent of control) BTK [26]: 98 POC; POC (Percent of control) cRAF [27]: 100 POC; POC (Percent of control) FGFR1 [28]: 95 POC; POC (Percent of control) GSK3 beta [29]: 101 POC; POC (Percent of control) INSR [30]: 94 POC; POC (Percent of control) LCK [31]: 96 POC
COc1ccc(Nc2ncccc2-c2nc(C)nc3[nH]cnc23)cn1 [Example 58, N-(6-methoxypyridin-3-yl)-3-(2-methyl-9H-purin-6-yl)pyridin-2-amine]	112	104	95	99	100	101	100	103	98	98	94	93	98	104	101	99	96	84	92	102	POC (Percent of control) PKGa2 [21]: 97 POC; POC (Percent of control) AURORA A [22]: 94 POC; POC (Percent of control) MARK1 [23]: 146 POC; POC (Percent of control) AKT1 [24]: 106 POC; POC (Percent of control) cMET [25]: 103 POC; POC (Percent of control) BTK [26]: 102 POC; POC (Percent of control) cRAF [27]: 99 POC; POC (Percent of control) FGFR1 [28]: 94 POC; POC (Percent of control) GSK3 beta [29]: 101 POC; POC (Percent of control) INSR [30]: 104 POC; POC (Percent of control) LCK [31]: 98 POC
